Laboratory results reported in publication doi:10.1101/2024.08.19.608619, “Discovery of potent SARS-CoV-2 nsp3 macrodomain inhibitors uncovers lack of translation to cellular antiviral response” (bioRxiv, 2024).
Values after ≈ are worked out from the molar mass of the structure shown. Like-named read-outs stand apart in the source and are kept apart here.

Assays:
IGF-1R(h) = biological target: T1, IGF-1R(h) (Homo sapiens, UniProt P08069); assay: biochemical; set-up: In vitro kinase panel profiling, per cent remaining kinase activity at 10 uM; conditions: atp_concentration=200, read-out: % of control remaining
T1 construct: gene IGF1R
Description: (§1) We derisk potential for off-target activity by profiling the compound in a CEREP panel, a standard secondary pharmacology assessment, as well as a kinase panel to derisk a potential hinge-binding motif in our leads, and a PARP panel to derisk activity against human […]. Reassuringly, the compounds are selective, with the only off-targets being moderate human CHRM2 and KOR receptors activity associated with ASAP-0011198.

MSK2(h) = biological target: T2, MSK2(h) (Homo sapiens, UniProt O75676); assay: biochemical; set-up: In vitro kinase panel profiling, per cent remaining kinase activity at 10 uM; conditions: atp_concentration=45, read-out: % of control remaining
T2 construct: gene RPS6KA4
Description: as §1

NEK2(h) = biological target: T3, NEK2(h) (Homo sapiens, UniProt P51955); assay: biochemical; set-up: In vitro kinase panel profiling, per cent remaining kinase activity at 10 uM; conditions: atp_concentration=120, read-out: % of control remaining
T3 sequence (P51955 1-445): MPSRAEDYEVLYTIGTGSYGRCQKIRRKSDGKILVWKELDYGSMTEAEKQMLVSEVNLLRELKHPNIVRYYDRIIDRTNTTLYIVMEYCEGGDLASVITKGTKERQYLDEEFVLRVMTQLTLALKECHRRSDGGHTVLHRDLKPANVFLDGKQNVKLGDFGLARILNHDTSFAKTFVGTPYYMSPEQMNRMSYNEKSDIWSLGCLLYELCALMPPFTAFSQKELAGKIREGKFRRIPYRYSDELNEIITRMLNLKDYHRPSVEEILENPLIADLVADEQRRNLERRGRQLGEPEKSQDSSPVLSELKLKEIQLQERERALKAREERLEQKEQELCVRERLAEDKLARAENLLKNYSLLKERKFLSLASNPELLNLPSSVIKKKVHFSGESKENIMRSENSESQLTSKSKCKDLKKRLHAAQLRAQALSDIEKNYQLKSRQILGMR
Description: as §1

PDGFRβ(h) = biological target: T4, PDGFRβ(h) (Homo sapiens, UniProt P09619); assay: biochemical; set-up: In vitro kinase panel profiling, per cent remaining kinase activity at 10 uM; conditions: atp_concentration=200, read-out: % of control remaining
T4 construct: gene PDGFRB
Description: as §1

[1] = biological target: T5, PI3 Kinase (p110δ/p85α)(h) (Homo sapiens, UniProt O00329); assay: biochemical; set-up: In vitro kinase panel profiling, per cent remaining kinase activity at 10 uM; conditions: atp_concentration=200, read-out: % of control remaining
T5 construct: gene PIK3CD
Description: as §1

PKA(h) = biological target: T6, PKA(h) (Homo sapiens, UniProt P17612); assay: biochemical; set-up: In vitro kinase panel profiling, per cent remaining kinase activity at 10 uM; conditions: atp_concentration=10, read-out: % of control remaining
T6 construct: gene PRKACA
Description: as §1

ROCK-I(h) = biological target: T7, ROCK-I(h) (Homo sapiens, UniProt Q13464); assay: biochemical; set-up: In vitro kinase panel profiling, per cent remaining kinase activity at 10 uM; conditions: atp_concentration=70, read-out: % of control remaining
T7 construct: gene ROCK1
Description: as §1

TAK1(h) = biological target: T8, TAK1(h) (Homo sapiens, UniProt O43318); assay: biochemical; set-up: In vitro kinase panel profiling, per cent remaining kinase activity at 10 uM; conditions: atp_concentration=45, read-out: % of control remaining
T8 construct: gene MAP3K7
T8 sequence (O43318 1-606): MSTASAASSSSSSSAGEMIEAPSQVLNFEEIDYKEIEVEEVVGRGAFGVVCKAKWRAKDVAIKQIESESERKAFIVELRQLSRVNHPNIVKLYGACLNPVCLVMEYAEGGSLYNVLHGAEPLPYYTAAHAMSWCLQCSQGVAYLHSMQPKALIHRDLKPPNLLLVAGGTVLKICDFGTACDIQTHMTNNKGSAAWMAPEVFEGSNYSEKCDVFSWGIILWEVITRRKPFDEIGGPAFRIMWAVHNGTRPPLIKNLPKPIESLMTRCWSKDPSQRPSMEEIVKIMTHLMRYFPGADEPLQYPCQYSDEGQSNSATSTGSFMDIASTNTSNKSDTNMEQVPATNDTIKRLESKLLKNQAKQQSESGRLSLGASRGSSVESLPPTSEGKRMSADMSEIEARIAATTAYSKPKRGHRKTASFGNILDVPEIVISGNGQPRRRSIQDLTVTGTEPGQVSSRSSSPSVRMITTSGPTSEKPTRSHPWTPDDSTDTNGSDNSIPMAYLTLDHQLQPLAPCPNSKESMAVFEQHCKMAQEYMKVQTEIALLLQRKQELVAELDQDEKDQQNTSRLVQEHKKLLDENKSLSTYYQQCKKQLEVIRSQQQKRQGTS
Description: as §1

mTOR(h) = mTOR(h) (Homo sapiens, UniProt P42345); assay: biochemical; set-up: In vitro kinase panel profiling, per cent remaining kinase activity at 10 uM; conditions: atp_concentration=70, read-out: % of control remaining
Description: as §1

[2] = In vitro kinetic solubility
[3] = In vitro kinetic solubility, ph 7.4

T7 sequence (Q13464 whole entry): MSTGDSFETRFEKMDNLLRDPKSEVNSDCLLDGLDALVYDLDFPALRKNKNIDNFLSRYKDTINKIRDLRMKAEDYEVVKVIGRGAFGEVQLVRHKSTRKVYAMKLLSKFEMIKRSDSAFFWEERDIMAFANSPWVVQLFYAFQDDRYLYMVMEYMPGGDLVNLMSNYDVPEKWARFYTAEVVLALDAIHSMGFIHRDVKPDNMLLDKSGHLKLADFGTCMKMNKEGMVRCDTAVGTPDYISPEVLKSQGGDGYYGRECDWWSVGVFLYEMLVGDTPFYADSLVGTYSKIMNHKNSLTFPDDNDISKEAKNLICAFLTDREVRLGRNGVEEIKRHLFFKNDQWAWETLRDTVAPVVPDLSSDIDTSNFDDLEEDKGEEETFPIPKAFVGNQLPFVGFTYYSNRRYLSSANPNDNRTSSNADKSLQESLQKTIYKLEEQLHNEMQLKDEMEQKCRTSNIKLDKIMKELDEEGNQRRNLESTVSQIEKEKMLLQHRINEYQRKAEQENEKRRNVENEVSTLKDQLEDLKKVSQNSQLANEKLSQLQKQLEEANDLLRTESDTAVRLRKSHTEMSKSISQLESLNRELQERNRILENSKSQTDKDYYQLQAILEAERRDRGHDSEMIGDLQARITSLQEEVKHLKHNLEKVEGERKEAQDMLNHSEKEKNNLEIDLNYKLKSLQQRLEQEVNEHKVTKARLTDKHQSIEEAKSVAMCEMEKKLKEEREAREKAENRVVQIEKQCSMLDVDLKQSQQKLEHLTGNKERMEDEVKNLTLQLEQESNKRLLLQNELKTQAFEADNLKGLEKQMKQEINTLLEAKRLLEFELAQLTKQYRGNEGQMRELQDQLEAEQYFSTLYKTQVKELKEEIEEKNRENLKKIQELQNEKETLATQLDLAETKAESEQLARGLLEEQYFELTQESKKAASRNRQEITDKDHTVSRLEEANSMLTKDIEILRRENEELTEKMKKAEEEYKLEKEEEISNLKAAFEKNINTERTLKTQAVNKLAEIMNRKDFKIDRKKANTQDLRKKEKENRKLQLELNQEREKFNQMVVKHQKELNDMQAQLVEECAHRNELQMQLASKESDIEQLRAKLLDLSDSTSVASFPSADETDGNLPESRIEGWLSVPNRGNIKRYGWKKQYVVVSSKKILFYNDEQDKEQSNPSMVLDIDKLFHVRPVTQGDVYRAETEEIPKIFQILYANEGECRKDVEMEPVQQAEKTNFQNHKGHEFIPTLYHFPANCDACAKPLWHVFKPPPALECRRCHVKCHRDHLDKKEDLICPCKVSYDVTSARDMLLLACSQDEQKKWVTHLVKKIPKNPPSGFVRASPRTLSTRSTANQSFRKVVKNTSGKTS
T4 sequence (P09619 whole entry): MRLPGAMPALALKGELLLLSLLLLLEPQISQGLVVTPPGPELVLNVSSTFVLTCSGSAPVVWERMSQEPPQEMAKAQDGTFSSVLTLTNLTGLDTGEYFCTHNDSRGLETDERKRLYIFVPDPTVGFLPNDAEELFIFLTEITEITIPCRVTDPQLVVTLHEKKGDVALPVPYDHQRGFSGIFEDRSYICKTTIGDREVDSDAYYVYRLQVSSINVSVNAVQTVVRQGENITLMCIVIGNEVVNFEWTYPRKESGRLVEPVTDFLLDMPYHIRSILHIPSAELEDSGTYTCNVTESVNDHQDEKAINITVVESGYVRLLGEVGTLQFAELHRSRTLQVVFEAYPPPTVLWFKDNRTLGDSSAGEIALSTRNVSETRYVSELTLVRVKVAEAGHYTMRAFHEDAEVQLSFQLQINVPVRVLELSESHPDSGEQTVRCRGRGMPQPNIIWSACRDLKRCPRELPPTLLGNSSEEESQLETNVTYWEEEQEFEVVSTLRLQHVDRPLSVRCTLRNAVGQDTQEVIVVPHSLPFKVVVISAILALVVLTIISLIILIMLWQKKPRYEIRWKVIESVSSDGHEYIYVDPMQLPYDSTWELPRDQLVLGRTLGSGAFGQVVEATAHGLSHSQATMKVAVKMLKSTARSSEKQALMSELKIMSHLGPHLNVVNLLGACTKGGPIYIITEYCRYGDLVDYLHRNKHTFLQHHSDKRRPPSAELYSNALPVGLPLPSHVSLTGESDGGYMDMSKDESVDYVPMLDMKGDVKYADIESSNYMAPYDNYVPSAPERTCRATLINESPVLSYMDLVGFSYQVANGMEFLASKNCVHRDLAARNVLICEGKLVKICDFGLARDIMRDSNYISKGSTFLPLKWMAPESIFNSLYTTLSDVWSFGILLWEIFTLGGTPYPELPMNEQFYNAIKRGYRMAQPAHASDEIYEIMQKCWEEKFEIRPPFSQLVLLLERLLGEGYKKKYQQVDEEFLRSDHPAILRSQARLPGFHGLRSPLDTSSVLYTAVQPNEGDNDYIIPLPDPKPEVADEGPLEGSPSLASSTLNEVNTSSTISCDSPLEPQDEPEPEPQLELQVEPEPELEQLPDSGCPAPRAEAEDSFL
T1 sequence (P08069 whole entry): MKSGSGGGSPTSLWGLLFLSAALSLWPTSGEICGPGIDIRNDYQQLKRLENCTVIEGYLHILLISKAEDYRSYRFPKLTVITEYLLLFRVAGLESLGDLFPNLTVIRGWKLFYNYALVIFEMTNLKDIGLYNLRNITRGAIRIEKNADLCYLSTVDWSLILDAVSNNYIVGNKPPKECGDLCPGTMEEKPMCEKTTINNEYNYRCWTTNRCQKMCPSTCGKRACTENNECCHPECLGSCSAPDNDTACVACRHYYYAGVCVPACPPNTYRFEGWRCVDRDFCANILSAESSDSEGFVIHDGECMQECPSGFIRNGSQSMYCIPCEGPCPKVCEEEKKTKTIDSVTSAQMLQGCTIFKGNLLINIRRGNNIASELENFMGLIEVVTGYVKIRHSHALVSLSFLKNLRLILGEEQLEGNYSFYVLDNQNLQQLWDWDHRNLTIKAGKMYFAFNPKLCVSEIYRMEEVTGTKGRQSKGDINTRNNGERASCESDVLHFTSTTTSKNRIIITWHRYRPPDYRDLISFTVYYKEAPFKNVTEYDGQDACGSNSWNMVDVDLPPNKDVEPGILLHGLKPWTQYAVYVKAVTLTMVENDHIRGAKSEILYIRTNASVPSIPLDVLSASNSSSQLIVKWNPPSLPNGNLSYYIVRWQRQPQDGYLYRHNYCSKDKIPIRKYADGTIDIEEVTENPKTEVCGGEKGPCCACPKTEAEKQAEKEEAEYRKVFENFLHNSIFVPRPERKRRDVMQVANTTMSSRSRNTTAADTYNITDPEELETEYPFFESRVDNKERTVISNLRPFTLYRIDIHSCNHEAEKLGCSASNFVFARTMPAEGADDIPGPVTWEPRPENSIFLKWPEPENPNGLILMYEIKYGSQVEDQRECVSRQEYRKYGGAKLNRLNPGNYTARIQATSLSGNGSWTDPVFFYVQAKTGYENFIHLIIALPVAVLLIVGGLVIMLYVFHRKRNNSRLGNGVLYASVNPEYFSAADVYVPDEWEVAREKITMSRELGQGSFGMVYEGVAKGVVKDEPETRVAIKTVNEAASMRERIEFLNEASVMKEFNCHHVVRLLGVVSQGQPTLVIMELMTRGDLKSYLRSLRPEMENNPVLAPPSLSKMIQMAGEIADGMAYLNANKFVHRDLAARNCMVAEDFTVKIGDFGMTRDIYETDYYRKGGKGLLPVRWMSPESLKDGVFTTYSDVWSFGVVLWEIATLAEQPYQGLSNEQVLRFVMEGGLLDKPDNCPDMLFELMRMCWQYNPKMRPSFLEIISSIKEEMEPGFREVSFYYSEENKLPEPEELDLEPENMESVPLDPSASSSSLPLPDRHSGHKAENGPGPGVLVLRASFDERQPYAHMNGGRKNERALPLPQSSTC
T2 sequence (O75676 whole entry): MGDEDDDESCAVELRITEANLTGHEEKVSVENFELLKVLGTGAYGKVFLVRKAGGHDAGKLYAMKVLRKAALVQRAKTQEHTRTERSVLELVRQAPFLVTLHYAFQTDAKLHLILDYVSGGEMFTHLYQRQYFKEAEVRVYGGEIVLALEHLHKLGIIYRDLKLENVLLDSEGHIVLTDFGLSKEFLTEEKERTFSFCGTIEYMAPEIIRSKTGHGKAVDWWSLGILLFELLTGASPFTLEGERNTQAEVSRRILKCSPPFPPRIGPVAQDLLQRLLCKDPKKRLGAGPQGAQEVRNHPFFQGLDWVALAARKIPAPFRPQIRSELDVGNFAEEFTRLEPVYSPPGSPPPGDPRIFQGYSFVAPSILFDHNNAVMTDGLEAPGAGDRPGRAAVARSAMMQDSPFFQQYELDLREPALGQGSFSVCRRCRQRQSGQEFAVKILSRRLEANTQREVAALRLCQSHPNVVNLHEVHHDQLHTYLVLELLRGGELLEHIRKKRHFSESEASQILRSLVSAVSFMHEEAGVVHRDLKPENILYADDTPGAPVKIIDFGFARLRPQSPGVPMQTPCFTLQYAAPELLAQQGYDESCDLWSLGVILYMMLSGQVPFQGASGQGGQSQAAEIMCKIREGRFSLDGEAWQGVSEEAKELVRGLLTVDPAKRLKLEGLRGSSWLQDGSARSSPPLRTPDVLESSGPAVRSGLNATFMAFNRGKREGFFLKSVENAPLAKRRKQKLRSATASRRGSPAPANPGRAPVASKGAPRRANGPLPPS

## Cn1ncc(-c2cc3c(N[C@@H](c4ccc5c(n4)OCCO5)C(C)(C)C)ncnc3[nH]2)c1C#N [ASAP-0011221]
LogD; pH 7.4, In vitro LogD
  logd: 3.3
IGF-1R(h); batch_name=ASAP-0011221-002
  remaining activity at 10 µM: 77%
MSK2(h); batch_name=ASAP-0011221-002
  remaining activity at 10 µM: 122%
NEK2(h); batch_name=ASAP-0011221-002
  remaining activity at 10 µM: 104%
PDGFRβ(h); batch_name=ASAP-0011221-002
  remaining activity at 10 µM: 100%
[1]; batch_name=ASAP-0011221-002
  remaining activity at 10 µM: 73%
PKA(h); batch_name=ASAP-0011221-002
  remaining activity at 10 µM: 95%
ROCK-I(h); batch_name=ASAP-0011221-002
  remaining activity at 10 µM: 129%
TAK1(h); batch_name=ASAP-0011221-002
  remaining activity at 10 µM: 95%
mTOR(h); batch_name=ASAP-0011221-002
  remaining activity at 10 µM: 105%
[2]; [3]
  solubility_mean: 24 µM (≈ 10.7 µg/mL)

## CC(C)C(Nc1ncnc2[nH]c(C(=O)NC3CCN(C)C3)cc12)c1ccc2c(c1)S(=O)(=O)CCC2 (stereo not shown) [ASAP-0011198]
LogD
  logd: 1.6
LogD; pH 7.4
  logd: 1.6
IGF-1R(h); batch_name=ASAP-0011198-002
  remaining activity at 10 µM: 104%
MSK2(h); batch_name=ASAP-0011198-002
  remaining activity at 10 µM: 93%
NEK2(h); batch_name=ASAP-0011198-002
  remaining activity at 10 µM: 118%
PDGFRβ(h); batch_name=ASAP-0011198-002
  remaining activity at 10 µM: 83%
[1]; batch_name=ASAP-0011198-002
  remaining activity at 10 µM: 99%
PKA(h); batch_name=ASAP-0011198-002
  remaining activity at 10 µM: 89%
ROCK-I(h); batch_name=ASAP-0011198-002
  remaining activity at 10 µM: 98%
TAK1(h); batch_name=ASAP-0011198-002
  remaining activity at 10 µM: 100%
mTOR(h); batch_name=ASAP-0011198-002
  remaining activity at 10 µM: 103%
[2]
  solubility kinetic: 392 µM (≈ 195 µg/mL)
[2]; pH 7.4
  solubility: 392 µM (≈ 195 µg/mL)

## CC(C)C(Nc1ncnc2[nH]ccc12)c1ccc2c(c1)S(=O)(=O)CCC2 (stereo not shown) [ASAP-0008327]
LogD; pH 7.4, logd, pH 7.4, In vitro LogD
  logd: 2.5
IGF-1R(h); batch_name=ASAP-0008327-001
  remaining activity at 10 µM: 88%
MSK2(h); batch_name=ASAP-0008327-001
  remaining activity at 10 µM: 99%
NEK2(h); batch_name=ASAP-0008327-001
  remaining activity at 10 µM: 118%
PDGFRβ(h); batch_name=ASAP-0008327-001
  remaining activity at 10 µM: 99%
[1]; batch_name=ASAP-0008327-001
  remaining activity at 10 µM: 101%
PKA(h); batch_name=ASAP-0008327-001
  remaining activity at 10 µM: 98%
ROCK-I(h); batch_name=ASAP-0008327-001
  remaining activity at 10 µM: 110%
TAK1(h); batch_name=ASAP-0008327-001
  remaining activity at 10 µM: 83%
mTOR(h); batch_name=ASAP-0008327-001
  remaining activity at 10 µM: 102%
[2]; pH 7.4, solubility_mean, In vitro kinetic solubility, ph 7.4
  solubility: 385 µM (≈ 143 µg/mL)

## COc1ccc([C@@H](Cc2nnn[nH]2)NC(=O)c2ncnc3[nH]ccc23)cc1 [ASAP-0008340]
LogD; pH 7.4, In vitro LogD
  logd: -0.1
IGF-1R(h); batch_name=ASAP-0008340-001
  remaining activity at 10 µM: 106%
MSK2(h); batch_name=ASAP-0008340-001
  remaining activity at 10 µM: 92%
NEK2(h); batch_name=ASAP-0008340-001
  remaining activity at 10 µM: 100%
PDGFRβ(h); batch_name=ASAP-0008340-001
  remaining activity at 10 µM: 102%
[1]; batch_name=ASAP-0008340-001
  remaining activity at 10 µM: 99%
PKA(h); batch_name=ASAP-0008340-001
  remaining activity at 10 µM: 105%
ROCK-I(h); batch_name=ASAP-0008340-001
  remaining activity at 10 µM: 93%
TAK1(h); batch_name=ASAP-0008340-001
  remaining activity at 10 µM: 88%
mTOR(h); batch_name=ASAP-0008340-001
  remaining activity at 10 µM: 95%
[2]; [3]
  solubility_mean: 395 µM (≈ 144 µg/mL)
